Test results published in ChEMBL document CHEMBL1121775, “Synthesis and antimalarial effects of N2-aryl-N4-[(dialkylamino)alkyl]- and N4-aryl-N2-[(dialkylamino)alkyl]-2,4-quinazolinediamines” (J Med Chem, 1981).
Several values for one entry are separate records, joined by “and”; a condition that tells them apart may be missing. Equal values may be shown once.

How the values were obtained:
Mus musculus [1] = test: Antimalarial effect against trophozoite-induced Plasmodium berghei in mice (Mus musculus) at dosage of 160 mg/kg after subcutaneous administration; No. of mice (Mus musculus) surviving after 60 days 4; assay type: functional
Mus musculus [2] = test: Number of mice cured at a dose of 640 mg/kg sc; assay type: functional; details: route subcutaneous
Plasmodium berghei [3] = test: Antimalarial effect against trophozoite-induced Plasmodium berghei in mice (Mus musculus) after 20 mg/kg subcutaneous dose; assay type: functional
Plasmodium berghei [4] = test: Antimalarial activity against trophozoite-induced Plasmodium berghei in mice (Mus musculus) at 160 mg/kg subcutaneous dose; assay type: functional; details: 160 mg/kg
Mus musculus [5] = test: Antimalarial effect against trophozoite-induced Plasmodium berghei in mice (Mus musculus) at dosage of 80 mg/kg after subcutaneous administration; No. of mice (Mus musculus) surviving after 60 days 4; assay type: functional
Mus musculus [6] = test: Number of mice cured at a subcutaneous dose of 160 mg/kg.; assay type: functional
Plasmodium berghei [7] = test: Antimalarial effect against trophozoite-induced Plasmodium berghei in mice (Mus musculus) at 80 mg/kg subcutaneous dose; assay type: functional
Plasmodium berghei [8] = test: Antimalarial effect against trophozoite-induced Plasmodium berghei in mice (Mus musculus) at 320 mg/kg subcutaneous dose; assay type: functional
Mus musculus [9] = test: Number of mice cured at a dose 320 mg/kg sc; assay type: functional; details: route subcutaneous
Mus musculus [10] = test: Number of mice cured at a subcutaneous dose of 320 mg/kg.; assay type: functional
Mus musculus [11] = test: Number of mice cured at a dose of 160 mg/kg sc; assay type: functional; details: route subcutaneous
Plasmodium berghei [12] = test: Antimalarial activity against trophozoite-induced Plasmodium berghei in mice (Mus musculus); assay type: functional
Plasmodium berghei [13] = test: Antimalarial effect against trophozoite-induced Plasmodium berghei in mice (Mus musculus) after 40 mg/kg subcutaneous dose; assay type: functional
Mus musculus [14] = test: Number of mice cured at a subcutaneous dose of 640 mg/kg.; assay type: functional
[15] = The ratio of SD90 of the quinine hydrochloride, to the SD90 of the test substance for the Dose of 9 mg/kg; assay type: functional
Mus musculus [16] = test: (§1) Number of mice cured at a dose of 80 mg/kg sc; assay type: functional; details: route subcutaneous
Mus musculus [17] = test: Antimalarial effect against trophozoite-induced Plasmodium berghei in mice (Mus musculus) at dosage of 80 mg/kg after subcutaneous administration; assay type: functional
Mus musculus [18] = test: Number of mice cured at a dose of 320 mg/kg sc; assay type: functional; details: route subcutaneous
Plasmodium berghei [19] = test: (§2) Antimalarial effect against trophozoite-induced Plasmodium berghei in mice (Mus musculus) at 640 mg/kg subcutaneous dose; assay type: functional; details: 640 mg/kg
Mus musculus [20] = test: Number of toxic deaths at a dose of 320 mg/kg; assay type: toxicity, organism-based; set-up: dose 320 mg/kg; details: in vivo
[21] = The ratio of SD90 of the quinine hydrochloride, to the SD90 of the test substance for the Dose of >33 mg/kg; assay type: functional
Mus musculus [22] = test: Number of toxic deaths at a dose of 640 mg/kg; assay type: toxicity, organism-based; set-up: dose 640 mg/kg; details: in vivo
Plasmodium berghei [23] = test: Antimalarial effect against trophozoite-induced Plasmodium berghei in mice (Mus musculus) at 160 mg/kg subcutaneous dose; assay type: functional
[24] = The ratio of SD90 of the quinine hydrochloride, to the SD90 of the test substance for the Dose of 8.4 mg/kg; assay type: functional
[25] = The ratio of SD90 of the quinine hydrochloride, to the SD90 of the test substance for the Dose of 30 mg/kg; assay type: functional
Plasmodium berghei [26] = test: as §2; assay type: functional
[27] = The ratio of SD90 of the quinine hydrochloride, to the SD90 of the test substance for the Dose of 7.8 mg/kg; assay type: functional
[28] = The ratio of SD90 of the quinine hydrochloride, to the SD90 of the test substance for the Dose of 24 mg/kg; assay type: functional
Mus musculus [29] = test: Antimalarial effect against trophozoite-induced Plasmodium berghei in mice (Mus musculus) at dosage of 160 mg/kg after subcutaneous administration;; assay type: functional
Mus musculus [30] = test: (§3) Number of mice cured at a dose of 40 mg/kg sc; assay type: functional; details: route subcutaneous
[31] = as §3; assay type: functional; details: route subcutaneous
[32] = as §1; assay type: functional; details: route subcutaneous
[33] = The ratio of SD90 of the quinine htdrocloride, to the SD90 of the test substance for the Dose of 8.5 mg/kg; assay type: functional
Mus musculus [34] = test: Antimalarial effect against trophozoite induced Plasmodium berghei in mice (Mus musculus) at dosage of 40 mg/kg after subcutaneous administration; assay type: functional
[35] = The ratio of SD90 of the quinine hydrochloride, to the SD90 of the test substance for the Dose of 91 mg/kg; assay type: functional

## CN(C)C1CCC(Nc2nc(Nc3cc(Cl)cc(Cl)c3)nc3ccccc23)CC1 (stereo in doubt; 26)
Mus musculus [1]
  MST: 27.9 days
Mus musculus [2]
  No. of survivals: 5
Plasmodium berghei [3]; 20 mg/kg
  MST: 3.6 days and 1.7 days
Plasmodium berghei [4]
  MST: 19.1 days and 24.9 days
Mus musculus [5]
  MST: 23.9 days
Mus musculus [6]; 160 mg/kg
  No. of survivals: 2 and 4
Plasmodium berghei [7]; 80 mg/kg
  MST: 11.6 days and 9 days
Plasmodium berghei [8]; 320 mg/kg
  MST: 27.8 days
Mus musculus [9]
  No. of survivals: 4
Mus musculus [10]
  No. of survivals: 5

## CCN(CC)C1CCC(Nc2nc(Nc3cc(Cl)cc(Cl)c3)nc3ccccc23)CC1 (stereo in doubt; 34)
Mus musculus [11]
  No. of cured: 2
Plasmodium berghei [12]
  SD90: 9 mg/kg/day
Plasmodium berghei [3]; 20 mg/kg
  MST: 2.3 days
Plasmodium berghei [4]
  MST: 26.9 days and 23.4 days
Plasmodium berghei [13]; 40 mg/kg
  MST: 7.7 days and 7.5 days
Mus musculus [14]
  No. of cured: 5
[15]
  Ratio: 8.3
Mus musculus [16]
  No. of cured: 1
Mus musculus [17]; 80 mg/kg
  MST: 13.4 days
Mus musculus [18]; 320 mg/kg
  No. of cured: 5 and 3

## CCOc1ccc(Nc2nc(NCCN(CC)CC)c3cc(Cl)ccc3n2)cc1CN1CCCC1
Plasmodium berghei [12]
  SD90: >33 mg/kg/day
Plasmodium berghei [3]
  MST: 0.2 days
Plasmodium berghei [13]; 40 mg/kg
  MST: 0.6 days and 0.2 days
Plasmodium berghei [19]
  MST: 13.3 days and 12.8 days
Plasmodium berghei [7]
  MST: 1 days
Plasmodium berghei [8]
  MST: 7.8 days
Mus musculus [20]
  No. of toxic deaths: 2
[21]
  Ratio: <2.3
Mus musculus [22]
  No. of toxic deaths: 3
Plasmodium berghei [23]; 160 mg/kg
  MST: 4.8 days and 4.6 days

## CCN1CCC(CNc2nc(Nc3ccc(Cl)c(Cl)c3)nc3ccccc23)CC1
Plasmodium berghei [12]
  SD90: 8.4 mg/kg/day
Plasmodium berghei [3]
  MST: 0.7 days
Plasmodium berghei [4]
  MST: 23.9 days and 27.9 days
Plasmodium berghei [13]; 40 mg/kg
  MST: 7.5 days and 7.3 days
Mus musculus [14]
  No. of cured: 5
Plasmodium berghei [7]
  MST: 9.1 days
[24]
  Ratio: 8.9
Mus musculus [18]; 320 mg/kg
  No. of cured: 5 and 4

## CCN(CC)CCNc1nc(Nc2ccc(Cl)c(Cl)c2)nc2ccc([N+](=O)[O-])cc12
Plasmodium berghei [12]
  SD90: 30 mg/kg/day
[25]
  Ratio: 2.5
Plasmodium berghei [3]; 20 mg/kg
  MST: 0.2 days and 0.3 days
Plasmodium berghei [13]; 40 mg/kg
  MST: 0.4 days and 0.7 days
Plasmodium berghei [7]; 80 mg/kg
  MST: 1.2 days and 1.5 days
Plasmodium berghei [8]; 320 mg/kg
  MST: 10.4 days and 10.9 days
Plasmodium berghei [26]
  MST: 20.6 days
Plasmodium berghei [23]; 160 mg/kg
  MST: 7 days and 7.3 days

## CN(C)C1CCC(Nc2nc(Nc3ccc(Cl)c(Cl)c3)nc3ccccc23)CC1 (stereo in doubt; 22)
Mus musculus [11]
  No. of cured: 4
Plasmodium berghei [12]
  SD90: 7.8 mg/kg/day
Plasmodium berghei [3]; 20 mg/kg
  MST: 0.3 days
Plasmodium berghei [4]
  MST: 22.9 days
Plasmodium berghei [13]; 40 mg/kg
  MST: 4.5 days and 4.1 days
[27]
  Ratio: 9.6
Mus musculus [16]
  No. of cured: 3
Plasmodium berghei [8]; 320 mg/kg
  MST: 25.9 days
Mus musculus [17]
  MST: 11.4 days
Mus musculus [18]
  No. of cured: 4
Plasmodium berghei [23]
  MST: 25.9 days

## CCN(CC)CCNc1nc(Nc2ccc(Cl)c(Cl)c2)nc2ccccc12
Mus musculus [2]
  No. of survivals: 5
Plasmodium berghei [12]
  SD90: 24 mg/kg/day
Plasmodium berghei [13]
  MST: 1 days
[28]
  Ratio: 3.1
Plasmodium berghei [23]
  MST: 7 days

## CCN(CC)C1CCC(Nc2nc(Nc3cc(Cl)cc(Cl)c3)nc3ccccc23)CC1 (stereo in doubt; 35)
Mus musculus [2]
  No. of survivals: 5
Plasmodium berghei [12]
  SD90: 8.5 mg/kg/day
Plasmodium berghei [3]; 20 mg/kg
  MST: 5.5 days
Plasmodium berghei [4]
  MST: 24.9 days
Mus musculus [29]
  MST: 23.9 days
Mus musculus [6]; 160 mg/kg
  No. of survivals: 4 and 3
Mus musculus [30]
  No. of survivals: 2
[31]
  No. of survivals: 2
[32]
  No. of survivals: 4
[33]
  Ratio: 8.8
Mus musculus [34]
  MST: 9.6 days and 8.9 days
Mus musculus [17]; 80 mg/kg
  MST: 21.9 days
Mus musculus [18]
  No. of survivals: 5

## CCN(CC)CCNc1nc(Nc2ccc(C(F)(F)F)cc2)nc2ccccc12
Mus musculus [2]
  No. of survivals: 4
Plasmodium berghei [12]
  SD90: 91 mg/kg/day
Plasmodium berghei [3]
  MST: 0.3 days
Mus musculus [6]
  No. of survivals: 1
Plasmodium berghei [13]; 40 mg/kg
  MST: 1.7 days and 1.1 days
Plasmodium berghei [7]
  MST: 7.3 days
Mus musculus [10]
  No. of survivals: 4
[35]
  Ratio: 0.8
Plasmodium berghei [23]
  MST: 8.9 days
